Data: patent US20080226571A1, “Compositions and methods to effect enhanced photoprotection against UV A and UV B induced damage of human skin” (priority 2007, published 2008)
Marks after values point to notes of the source that are not given here.

Key:
Assay type in all cases: cell-based
[1] = tested on: HaCaT human keratinocyte cell line; assay: UV A protection of HaCaT keratinocytes, topical application model (Protocol I, SRB viability); settings: for % UV A protection: Topical model; for UV protection UV A: summary in words, Table I, HaCaT, topical and oral protocols not separated
Method: (§1) The protocol is based on evaluating the reduction in photo damage caused by UV A and UV B in HaCaT human keratinocyte cell line. The cell viability is measured by Sulphorhodamine B assay (SRB assay) after exposure to UV rays. The percentage of UV protection is calculated based on the number of viable cells in the control (untreated) and test HaCaT human keratinocytes (treated with the labdane-diterpenoids based composition of the present invention) after UV exposure. The photoprotection assays to screen compounds for their UV protection efficacy during topical and oral applications as discussed in J Am Acad Dermatol 2003; 49: 458-472 is adopted as a reference.
(§2) Protocol I—Screening compounds suited for topical applications for UV protection efficacy 0.5×10^4 HaCaT human keratinocyte cells/well are counted and seeded into a 96 well micro titer plates. The cells are incubated at 37° C. in 5% CO2 for 24 hours. The growth medium is then removed and replaced with medium containing varying concentrations of the labdane-diterpenoids based composition of the present invention. The cells are immediately exposed to ultraviolet irradiation and further incubated for 72 hours. After 72 hours, the cell viability is determined by SRB assay.
(§3) The UV A exposure in both the protocols involves three UV A bulbs providing 108 watts of power. The plates are exposed for 1 hour at a distance of 5 cm from the source of light. The UV B exposure in both the protocols involves three UV B bulbs which provide 100 μwatt/cm^2 or 0.14 J/cm^2 irradiation dose. The plates are exposed for 7 minutes at a distance of 30 cm from the source of light.

[2] = tested on: HaCaT human keratinocyte cell line; assay: UV A protection of HaCaT keratinocytes, oral application model (Protocol II)
Method: as §1
(§4) Protocol II—Screening compounds suited for oral applications for UV protection efficacy 0.5×10^4 HaCaT human keratinocyte cells/well are counted and seeded into a 96 well micro titer plates. The cells are incubated at 37° C. in 5% CO2 for 24 hours. The growth medium is then removed and replaced with medium containing varying concentrations of the labdane-diterpenoids based composition of the present invention. The cells are then incubated for 24 hours to be followed by UV treatment. The UV treated cells are further incubated for 48 hours after which, cell viability is determined using the SRB or neutral red uptake assays.
as §3

[3] = tested on: HaCaT human keratinocyte cell line; assay: UV B protection of HaCaT keratinocytes, topical application model (Protocol I, SRB viability); settings: for % UV B protection as compared to control: Table B, Topical model; for UV protection UV B: summary in words, Table I, HaCaT, topical and oral protocols not separated
Method: as §1, §2, §3

[4] = tested on: HaCaT human keratinocyte cell line; assay: UV B protection of HaCaT keratinocytes, oral application model (Protocol II)
Method: as §1, §4, §3

[5] = tested on: B16F1 mouse melanoma cells; assay: Intracellular melanin enhancement; settings: for melanin enhancement activity, comparison in words: Tables C and E; for dose levels still tolerated and effective, relative to the maximum tolerated dose levels of active III: mouse; for Melanin enhancement: summary in words, Table I
Method: B16F1 mouse melanoma cells are treated with varying concentrations of actives I, II and III and other optional actives or combinations thereof at a time interval of 3 days for nine consecutive days. The intracellular melanin in both the controls and test B16F1 mouse melanoma cells is extracted by 1 N NaOH and subjected to a heat treatment at 100° C. The extracted melanin is estimated at 405 nm in a Fluostar Optima Microplate Reader.

cells of the skin = assay: Relative cytotoxicity (summary Table I); settings: summary in words

C=C[C@@]1(C)CC(=O)[C@]2(O)[C@@]3(C)[C@@H](O)CCC(C)(C)[C@@H]3[C@H](O)[C@H](O)[C@@]2(C)O1 [Active I, 8,13-epoxy-1α,6β,7β,9α-tetrahydroxylabd-14-en-11-one]
% UV A protection ([1]; 0.25 μg/ml): 14% | % UV A protection ([1]; 0.5 μg/ml): 16% | % UV A protection ([1]; 1 μg/ml): 19% | % UV A protection ([1]; 2 μg/ml): 31* % | % UV A protection ([1]; 3 μg/ml): 42* % | % UV A protection ([1]; 5 μg/ml): 49* % | % UV A protection ([1]; 12 μg/ml): 59* % | UV protection UV A [1]: Significant | % UV A protection ([2]; 0.25 μg/ml): 24* % | % UV A protection ([2]; 0.5 μg/ml): 29* % | % UV A protection ([2]; 1 μg/ml): 58* % | % UV A protection ([2]; 2 μg/ml): 82* % | % UV A protection ([2]; 3 μg/ml): 98* % | % UV A protection ([2]; 5 μg/ml): 97* % | % UV A protection ([2]; 12 μg/ml): 98* % | % UV B protection as compared to control ([3]; 0.25 μg/ml): 10% | % UV B protection as compared to control ([3]; 0.5 μg/ml): 13% | % UV B protection as compared to control ([3]; 1 μg/ml): 20* % | % UV B protection as compared to control ([3]; 2 μg/ml): 35* % | % UV B protection as compared to control ([3]; 3 μg/ml): 45* % | % UV B protection as compared to control ([3]; 5 μg/ml): 50* % | % UV B protection as compared to control ([3]; 12 μg/ml): 55* % | UV protection UV B [3]: Significant | % UV B protection ([4]; 0.25 μg/ml): 15* % | % UV B protection ([4]; 0.5 μg/ml): 35* % | % UV B protection ([4]; 1 μg/ml): 65* % | % UV B protection ([4]; 2 μg/ml): 80* % | % UV B protection ([4]; 3 μg/ml): 91* % | % UV B protection ([4]; 5 μg/ml): 97* % | % UV B protection ([4]; 12 μg/ml): 98* % | No. of folds of Melanin Enhancement compared to control ([5]; 0.25 μg/ml): 1.1 folds | No. of folds of Melanin Enhancement compared to control ([5]; 0.5 μg/ml): 1.25 folds | No. of folds of Melanin Enhancement compared to control ([5]; 1 μg/ml): 1.9* folds | No. of folds of Melanin Enhancement compared to control ([5]; 2 μg/ml): 2.8* folds | No. of folds of Melanin Enhancement compared to control ([5]; 3 μg/ml): 3.2* folds | No. of folds of Melanin Enhancement compared to control ([5]; 5 μg/ml): 3.8* folds | No. of folds of Melanin Enhancement compared to control ([5]; 12 μg/ml): 4.2* folds | melanin enhancement activity, comparison in words [5]: more than active II or active III | dose levels still tolerated and effective, relative to the maximum tolerated dose levels of active III [5]: 2.4 times | Melanin enhancement [5]: Significant

C=C[C@@]1(C)CC(=O)[C@]2(O)[C@@]3(C)[C@@H](O)CCC(C)(C)[C@@H]3[C@H](OC(C)=O)[C@H](O)[C@@]2(C)O1 [Active II, 6β-acetoxy-8,13-epoxy-1α,7β,9α-trihydroxylabd-14-en-11-one]
% UV A protection ([1]; 0.25 μg/ml): 10% | % UV A protection ([1]; 0.5 μg/ml): 13% | % UV A protection ([1]; 1 μg/ml): 18* % | % UV A protection ([1]; 2 μg/ml): 25* % | % UV A protection ([1]; 3 μg/ml): 35* % | % UV A protection ([1]; 5 μg/ml): 45* % | % UV A protection ([1]; 12 μg/ml): 50* % | UV protection UV A [1]: Moderate | % UV A protection ([2]; 0.25 μg/ml): 15* % | % UV A protection ([2]; 0.5 μg/ml): 25* % | % UV A protection ([2]; 1 μg/ml): 55* % | % UV A protection ([2]; 2 μg/ml): 75* % | % UV A protection ([2]; 3 μg/ml): 98* % | % UV A protection ([2]; 5 μg/ml): 97* % | % UV A protection ([2]; 12 μg/ml): 98* % | % UV B protection as compared to control ([3]; 0.25 μg/ml): 0% | % UV B protection as compared to control ([3]; 0.5 μg/ml): 0% | % UV B protection as compared to control ([3]; 1 μg/ml): 15* % | % UV B protection as compared to control ([3]; 2 μg/ml): 25* % | % UV B protection as compared to control ([3]; 3 μg/ml): 28* % | % UV B protection as compared to control ([3]; 5 μg/ml): 30* % | % UV B protection as compared to control ([3]; 12 μg/ml): 35* % | UV protection UV B [3]: Moderate | % UV B protection ([4]; 0.25 μg/ml): 10* % | % UV B protection ([4]; 0.5 μg/ml): 15* % | % UV B protection ([4]; 1 μg/ml): 18* % | % UV B protection ([4]; 2 μg/ml): 23* % | % UV B protection ([4]; 3 μg/ml): 30* % | % UV B protection ([4]; 5 μg/ml): 35* % | % UV B protection ([4]; 12 μg/ml): 40* % | No. of folds of Melanin Enhancement compared to control ([5]; 0.25 μg/ml): 1 folds | No. of folds of Melanin Enhancement compared to control ([5]; 0.5 μg/ml): 1.1 folds | No. of folds of Melanin Enhancement compared to control ([5]; 1 μg/ml): 1.6* folds | No. of folds of Melanin Enhancement compared to control ([5]; 2 μg/ml): 2.3* folds | No. of folds of Melanin Enhancement compared to control ([5]; 3 μg/ml): 3* folds | No. of folds of Melanin Enhancement compared to control ([5]; 5 μg/ml): 3.45* folds | No. of folds of Melanin Enhancement compared to control ([5]; 12 μg/ml): 3.5* folds | dose levels still tolerated and effective, relative to the maximum tolerated dose levels of active III [5]: 2.4 times | Melanin enhancement [5]: Moderate

C=C[C@@]1(C)CC(=O)[C@]2(O)[C@@]3(C)[C@@H](O)CCC(C)(C)[C@@H]3[C@H](O)[C@H](OC(C)=O)[C@@]2(C)O1 [Active III, 7β-acetoxy-8,13-epoxy-1α,6β,9α-trihydroxylabd-14-en-11-one]
% UV A protection ([1]; 0.25 μg/ml): 5% | % UV A protection ([1]; 0.5 μg/ml): 10% | % UV A protection ([1]; 1 μg/ml): 15* % | % UV A protection ([1]; 2 μg/ml): 20* % | % UV A protection ([1]; 3 μg/ml): 29* % | % UV A protection ([1]; 5 μg/ml): toxic | % UV A protection ([1]; 12 μg/ml): toxic | UV protection UV A [1]: Moderate | % UV A protection ([2]; 0.25 μg/ml): 10% | % UV A protection ([2]; 0.5 μg/ml): 15* % | % UV A protection ([2]; 1 μg/ml): 20* % | % UV A protection ([2]; 2 μg/ml): 26* % | % UV A protection ([2]; 3 μg/ml): 38* % | % UV A protection ([2]; 5 μg/ml): toxic | % UV A protection ([2]; 12 μg/ml): toxic | % UV B protection as compared to control ([3]; 0.25 μg/ml): 0% | % UV B protection as compared to control ([3]; 0.5 μg/ml): 2% | % UV B protection as compared to control ([3]; 1 μg/ml): 5% | % UV B protection as compared to control ([3]; 2 μg/ml): 5% | % UV B protection as compared to control ([3]; 3 μg/ml): 5% | % UV B protection as compared to control ([3]; 5 μg/ml): toxic | % UV B protection as compared to control ([3]; 12 μg/ml): toxic | UV protection UV B [3]: Nil | % UV B protection ([4]; 0.25 μg/ml): 0% | % UV B protection ([4]; 0.5 μg/ml): 2% | % UV B protection ([4]; 1 μg/ml): 4% | % UV B protection ([4]; 2 μg/ml): 4% | % UV B protection ([4]; 3 μg/ml): 5% | % UV B protection ([4]; 5 μg/ml): toxic | % UV B protection ([4]; 12 μg/ml): toxic | No. of folds of Melanin Enhancement compared to control ([5]; 0.25 μg/ml): 1 folds | No. of folds of Melanin Enhancement compared to control ([5]; 0.5 μg/ml): 1.1 folds | No. of folds of Melanin Enhancement compared to control ([5]; 1 μg/ml): 1.5* folds | No. of folds of Melanin Enhancement compared to control ([5]; 2 μg/ml): 2* folds | No. of folds of Melanin Enhancement compared to control ([5]; 3 μg/ml): 2.8* folds | No. of folds of Melanin Enhancement compared to control ([5]; 5 μg/ml): toxic | No. of folds of Melanin Enhancement compared to control ([5]; 12 μg/ml): toxic | Melanin enhancement [5]: Moderate | Cytotoxicity (cells of the skin): Cytotoxic

O=C(CCCCc1ccc2c(c1)OCO2)N1CCCCC1 [tetrahydropiperine]
toxicity to cells ([5]; Example 4): toxic to cells | melanin enhancement activity, comparison in words [5]: does not show significant melanin enhancement activity
